Where “and” joins values, the source holds several entries; their conditions need not be identical. Equal values may be shown once.
Experiments:
Log P of Compound A = type: physicochemical; details: approximate value
[1] = system: NCI-H69 xenograft model (small cell lung cancer); test: Efficacy in NCI-H69 xenograft model: tumor volumes and tumor growth inhibition; type: in vivo, mice
From the text: Efficacies of Compound A alone or formulated in nanoparticles were studied with NCI-H69 xenograft model (small cell lung cancer).

in vivo = details: rat, 1 mg/kg
Description: In addition, rat plasma concentrations of Compound A and Compound A in NP04 formulation were measured over time.

[2] = Compound A 25 mg/kg days 1 and 8, Day 5
[3] = Compound A 25 mg/kg days 1 and 8, Day 8
[4] = Compound A 25 mg/kg days 1 and 8, Day 16
[5] = Compound A 25 mg/kg days 1 and 8, Day 19
[6] = Compound A 50 mg/kg days 1 and 8, Day 5, 50 mg/kg
[7] = Compound A 50 mg/kg days 1 and 8, Day 8, 50 mg/kg
[8] = Compound A 50 mg/kg days 1 and 8, Day 11, 50 mg/kg
[9] = Compound A 50 mg/kg days 1 and 8, Day 16, 50 mg/kg
[10] = Compound A 50 mg/kg days 1 and 8, Day 19, 50 mg/kg
[11] = Compound A 50 mg/kg days 1 and 8, Day 22, 50 mg/kg
[12] = Compound A 150 mg/kg days 1 and 8, Day 5, 150 mg/kg
[13] = Compound A 150 mg/kg days 1 and 8, Day 8, 150 mg/kg
[14] = Compound A 150 mg/kg days 1 and 8, Day 11
[15] = Compound A 150 mg/kg days 1 and 8, Day 11, 150 mg/kg
[16] = Compound A 150 mg/kg days 1 and 8, Day 16, 150 mg/kg
[17] = Compound A 150 mg/kg days 1 and 8, Day 19, 150 mg/kg
[18] = Compound A 150 mg/kg days 1 and 8, Day 22, 150 mg/kg

Structure (SMILES): CCc1c2c(nc3ccc(OC(=O)N4CCC(CCn5ccc6cc(-n7c(O)nnc7-c7cc(C(C)C)c(O)cc7O)ccc65)CC4)cc13)-c1cc3c(c(=O)n1C2)COC(=O)[C@]3(O)CC [Compound A, (S)-4,11-diethyl-4-hydroxy-3,14-dioxo-3,4,12,14-tetrahydro-1H-pyrano[3′,4′:6,7]indolizino[1,2-b]quinolin-9-yl 4-(2-(5-(3-(2,4-dihydroxy-5-isopropylphenyl)-5-hydroxy-4H-1,2,4-triazol-4-yl)-1H-indol-1-yl)ethyl)piperidine-1-carboxylate]
- logP (Log P of Compound A): ~6.7
- TV Mean ([1]; Compound A 25 mg/kg days 1 and 8, Day 1): 273.4 mm3
- TGI % [1, 2]: 2.8%
- TV Mean [1, 2]: 390.6 mm3
- TGI % [1, 3]: 24.9%
- TV Mean [1, 3]: 423.8 mm3
- TV Mean ([1]; Compound A 25 mg/kg days 1 and 8, Day 11): 383.2 mm3
- TGI % ([1]; Compound A 25 mg/kg days 1 and 8, Day 11, 25 mg/kg): 47%
- TGI % [1, 4]: 69.3%
- TV Mean [1, 4]: 345.4 mm3
- TGI % [1, 5]: 72.2%
- TV Mean [1, 5]: 387.4 mm3
- TV Mean ([1]; Compound A 25 mg/kg days 1 and 8, Day 22): 510.4 mm3
- TGI % ([1]; Compound A 25 mg/kg days 1 and 8, Day 22, 25 mg/kg): 70%
- TV Mean ([1]; Compound A 25 mg/kg days 1 and 8, Day 26): 654.4 mm3
- TV Mean ([1]; Compound A 25 mg/kg days 1 and 8, Day 31): 866.4 mm3
- TV Mean ([1]; Compound A 50 mg/kg days 1 and 8, Day 1): 273.3 mm3
- TV individual animal ([1]; Compound A 50 mg/kg days 1 and 8, Day 1, 50 mg/kg): 222 mm3 and 255 mm3
- TV Mean ([1]; Compound A 50 mg/kg days 1 and 8, Day 5): 360.1 mm3
- TGI % [1, 6]: 10.42% and 10.4%
- TV individual animal [1, 6]: 293 mm3
- TV Mean ([1]; Compound A 50 mg/kg days 1 and 8, Day 8): 377.9 mm3
- TGI % [1, 7]: 33.02% and 33%
- TV individual animal [1, 7]: 336 mm3
- TV Mean ([1]; Compound A 50 mg/kg days 1 and 8, Day 11): 267.8 mm3
- TGI % [1, 8]: 62.98% and 63%
- TV individual animal [1, 8]: 202 mm3
- TV Mean ([1]; Compound A 50 mg/kg days 1 and 8, Day 16): 166.4 mm3
- TGI % [1, 9]: 85.23% and 85.2%
- TV individual animal [1, 9]: 136 mm3
- TV Mean ([1]; Compound A 50 mg/kg days 1 and 8, Day 19): 116.6 mm3
- TGI % [1, 10]: 91.64% and 91.6%
- TV individual animal [1, 10]: 103 mm3
- TV Mean ([1]; Compound A 50 mg/kg days 1 and 8, Day 22): 125.6 mm3
- TGI % [1, 11]: 92.63% and 92.6%
- TV individual animal [1, 11]: 91 mm3
- TV Mean ([1]; Compound A 50 mg/kg days 1 and 8, Day 26): 165.7 mm3
- TV individual animal ([1]; Compound A 50 mg/kg days 1 and 8, Day 26, 50 mg/kg): 116 mm3
- TV Mean ([1]; Compound A 50 mg/kg days 1 and 8, Day 31): 318.9 mm3
- TV individual animal ([1]; Compound A 50 mg/kg days 1 and 8, Day 31, 50 mg/kg): 256 mm3
- TV Mean ([1]; Compound A 150 mg/kg days 1 and 8, Day 1): 273.6 mm^3
- TV individual animal ([1]; Compound A 150 mg/kg days 1 and 8, Day 1, 150 mg/kg): 218 mm^3 and 266 mm^3 and 269 mm^3 and 295 mm^3 and 302 mm^3 and 335 mm^3 and 339 mm^3 and 353 mm^3 and 144 mm^3 and 215 mm^3
- TV Mean ([1]; Compound A 150 mg/kg days 1 and 8, Day 5): 353 mm^3
- TGI % [1, 12]: 12.19% and 12.9%
- TV individual animal [1, 12]: 291 mm^3 and 370 mm^3 and 363 mm^3 and 417 mm^3 and 376 mm^3 and 367 mm^3 and 406 mm^3 and 568 mm^3 and 147 mm^3 and 225 mm^3
- TV Mean ([1]; Compound A 150 mg/kg days 1 and 8, Day 8): 343.8 mm^3
- TGI % [1, 13]: 39.06% and 39.1%
- TV individual animal [1, 13]: 275 mm^3 and 362 mm^3 and 281 mm^3 and 413 mm^3 and 354 mm^3 and 393 mm^3 and 397 mm^3 and 595 mm^3 and 168 mm^3 and 200 mm^3
- TGI % [1, 14]: 65.44%
- TV Mean [1, 14]: 250 mm^3
- TGI % [1, 15]: 65.4%
- TV individual animal [1, 15]: 189 mm^3 and 236 mm^3 and 217 mm^3 and 318 mm^3 and 264 mm^3 and 322 mm^3 and 285 mm^3 and 436 mm^3 and 99 mm^3 and 134 mm^3
- TV Mean ([1]; Compound A 150 mg/kg days 1 and 8, Day 16): 109.7 mm^3
- TGI % [1, 16]: 90.26% and 90.3%
- TV individual animal [1, 16]: 89 mm^3 and 108 mm^3 and 90 mm^3 and 132 mm^3 and 123 mm^3 and 138 mm^3 and 135 mm^3 and 173 mm^3 and 46 mm^3 and 63 mm^3
- TV Mean ([1]; Compound A 150 mg/kg days 1 and 8, Day 19): 77.9 mm^3
- TGI % [1, 17]: 94.41% and 94.4%
- TV individual animal [1, 17]: 55 mm^3 and 100 mm^3 and 85 mm^3 and 95 mm^3 and 74 mm^3 and 121 mm^3 and 39 mm^3 and 135 mm^3 and 33 mm^3 and 42 mm^3
- TV Mean ([1]; Compound A 150 mg/kg days 1 and 8, Day 22): 63.5 mm^3
- TGI % [1, 18]: 96.27% and 96.3%
- TV individual animal [1, 18]: 46 mm^3 and 64 mm^3 and 72 mm^3 and 85 mm^3 and 66 mm^3 and 89 mm^3 and 71 mm^3 and 68 mm^3 and 27 mm^3 and 47 mm^3
- TV Mean ([1]; Compound A 150 mg/kg days 1 and 8, Day 26): 51.8 mm^3
- TV individual animal ([1]; Compound A 150 mg/kg days 1 and 8, Day 26, 150 mg/kg): 45 mm^3 and 52 mm^3 and 68 mm^3 (2×) and 61 mm^3 and 83 mm^3 and 77 mm^3 and 41 mm^3 and 4 mm^3 and 19 mm^3
- TV Mean ([1]; Compound A 150 mg/kg days 1 and 8, Day 31): 13.5 mm^3
- TV individual animal ([1]; Compound A 150 mg/kg days 1 and 8, Day 31, 150 mg/kg): 11 mm^3 and 17 mm^3 and 25 mm^3 and 6 mm^3 and 3 mm^3 and 44 mm^3 and 2 mm^3 and 27 mm^3 and 0 mm^3 (2×)
- AUC(0-inf) (in vivo): 3.93 µM·h
- AUC(0-t) (in vivo): 3.93 µM·h
- Cmax (in vivo): 11.8 µM
- Vd (in vivo): 0.0786 L/kg
- clearance (in vivo): 4.82 mL/min/kg
- half-life (in vivo): 59.1 min

— patent publication US20200237746A1, “HSP90 TARGETED CONJUGATES AND PARTICLE FORMULATIONS THEREOF” (TARVEDA THERAPEUTICS, INC., priority 2017, published 2020)
